These are literature values, as cited in PMC3085280 (Tetrahedron, 2009).

The test system of this data set is κ-opioid.

For `COC(=O)[C@@H]1C[C@H](OC(C)=O)C(=O)[C@H]2[C@@]1(C)CC[C@H]1C(=O)O[C@H](c3ccoc3)C[C@]21C` [Compound 1, Salvinorin A], the κ-opioid agonist activity result was “potent and selective κ-opioid agonist”.
